{"source": "patent US5416191A", "about": "“Bradykinin antagonists” (Cortech, Inc., priority 1993, dated 1995)", "key": {"[1]": {"target": "T1, bradykinin receptor of the B2 class (rat uterus) (Rattus norvegicus, UniProt P25023)", "T1 construct": "concentration effect curves to bradykinin (BK) on rat uterus in vitro; from tissue; host or cells: rat uterus", "T1 sequence (P25023 1-396)": "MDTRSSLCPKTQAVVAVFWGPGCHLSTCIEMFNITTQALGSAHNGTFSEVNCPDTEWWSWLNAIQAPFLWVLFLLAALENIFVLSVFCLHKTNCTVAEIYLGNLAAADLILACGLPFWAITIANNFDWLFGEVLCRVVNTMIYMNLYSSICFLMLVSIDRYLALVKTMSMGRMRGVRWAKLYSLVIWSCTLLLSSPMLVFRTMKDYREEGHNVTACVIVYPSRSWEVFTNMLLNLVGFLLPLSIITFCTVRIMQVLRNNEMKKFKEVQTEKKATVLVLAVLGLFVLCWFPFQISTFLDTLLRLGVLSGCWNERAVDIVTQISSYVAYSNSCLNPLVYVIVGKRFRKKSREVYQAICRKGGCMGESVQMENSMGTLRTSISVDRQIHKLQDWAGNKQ", "experiment": "Rat uterus (RU) in vitro, antagonism of bradykinin", "protocol": "Thus in vitro studies were performed on standard assay systems, namely, guinea-pig ileum (GPI), rat uterus (RU) and rabbit jugular vein (RJV). […] The PA2 can be defined as the negative logarithm of the molar concentration of the antagonist in the presence of which the potency of the agonist is reduced two-fold, i.e. twice the amount of agonist is required to produce a given response in the presence of, than in the absence of, the antagonist. A high potency of antagonism is indicated by a high PA2 value, i.e., a low concentration of antagonist is effective.\nThe percentage recovery (% Rec) was also determined for compounds with respect to each assay.\nWith respect to duration of activity, it is noted that after exposure to the highest concentration of antagonist, each tissue was washed extensively and then assessed for recovery from the antagonist effect.\nPotency in the rat uterus assay was assessed as described above and PA2 values determined."}, "[2]": {"target": "T2, bradykinin receptor of the B2 class (guinea-pig ileum) (Cavia porcellus, UniProt O70526)", "T2 sequence (O70526 1-372)": "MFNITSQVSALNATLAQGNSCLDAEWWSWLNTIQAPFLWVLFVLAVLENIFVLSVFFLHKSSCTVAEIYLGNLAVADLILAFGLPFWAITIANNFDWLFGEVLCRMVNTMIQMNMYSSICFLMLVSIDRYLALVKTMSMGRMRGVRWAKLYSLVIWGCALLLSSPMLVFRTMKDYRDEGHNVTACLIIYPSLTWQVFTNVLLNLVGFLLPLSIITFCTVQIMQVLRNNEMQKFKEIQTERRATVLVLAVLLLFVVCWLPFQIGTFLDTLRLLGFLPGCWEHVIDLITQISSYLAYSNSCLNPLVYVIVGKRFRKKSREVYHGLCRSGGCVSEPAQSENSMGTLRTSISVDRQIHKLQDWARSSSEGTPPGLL"}, "[3]": {"details": "Table C, rat uterus, P.A. = Partial Agonist, read-out: pA2 MONOMER (converted)"}}, "note": "Read-outs that look alike come from different tables or passages of the source. Square brackets hold non-standard residues; d marks the D form. Peptide text beside a SMILES is read from it. * marks the point of attachment. Hyp = O=C(O)[C@@H]1C[C@@H](O)CN1; X8 = O=C1CC(*)C(=O)N1; X19 = CCCCCCNC(=O)C*", "data": [{"smiles": "CC(C)C[C@H](NC(=O)[C@@H](Cc1ccccc1)NC(=O)[C@H](CSSC[C@H](NC(=O)[C@H](Cc1ccccc1)NC(=O)CNC(=O)[C@@H]1C[C@@H](O)CN1C(=O)[C@@H]1CCCN1C(=O)[C@H](CCCNC(=N)N)NC(=O)[C@H](N)CCCNC(=N)N)C(=O)N[C@H](Cc1ccccc1)C(=O)N[C@@H](CC(C)C)C(=O)N[C@@H](CCCNC(=N)N)C(=O)O)NC(=O)[C@H](Cc1ccccc1)NC(=O)CNC(=O)[C@@H]1C[C@@H](O)CN1C(=O)[C@@H]1CCCN1C(=O)[C@H](CCCNC(=N)N)NC(=O)[C@H](N)CCCNC(=N)N)C(=O)N[C@@H](CCCNC(=N)N)C(=O)O", "note": "[CP-0138] (HELM PEPTIDE1{[dR].R.P.[Hyp].G.F.C.[dF].L.R}|PEPTIDE2{[dR].R.P.[Hyp].G.F.C.[dF].L.R}$PEPTIDE1,PEPTIDE2,7:R3-7:R3$$$V2.0)", "values": [{"measurement": "RAT UTERUS % RECOVERED", "setting": "[1]; Table E", "result": 100, "unit": "%"}, {"measurement": "Kb", "setting": "[1]; Table E, read-out: RAT UTERUS pA2 (converted)", "result": 39.8, "unit": "nM"}, {"measurement": "Kb", "setting": "[2]", "result": "~631", "unit": "nM"}]}, {"smiles": "CC(C)C[C@H](NC(=O)[C@@H](Cc1ccccc1)NC(=O)[C@H](CSC1CC(=O)NC1=O)NC(=O)[C@H](Cc1ccccc1)NC(=O)CNC(=O)[C@@H]1C[C@@H](O)CN1C(=O)[C@@H]1CCCN1C(=O)[C@H](CCCNC(=N)N)NC(=O)[C@H](N)CCCNC(=N)N)C(=O)N[C@@H](CCCNC(=N)N)C(=O)O", "note": "(some centres unmarked) [CP-0139] (H-[dR]RP[Hyp]GFC(X8)[dF]LR-OH)", "values": [{"measurement": "Kb", "setting": "[2]", "result": "~79.4", "unit": "nM"}]}, {"smiles": "CC(C)C[C@H](NC(=O)[C@@H](Cc1ccccc1)NC(=O)[C@H](CO)NC(=O)[C@H](Cc1ccccc1)NC(=O)CNC(=O)[C@@H]1C[C@@H](O)CN1C(=O)[C@@H]1CCCN1C(=O)[C@H](CCCNC(=N)N)NC(=O)[C@@H](N)CS)C(=O)N[C@@H](CCCNC(=N)N)C(=O)O", "note": "[CP-0140] (HELM PEPTIDE1{C.R.P.[Hyp].G.F.S.[dF].L.R}$$$$V2.0)", "values": [{"measurement": "% REC MONOMER", "setting": "[1]; Table C, rat uterus", "result": 50, "unit": "%"}, {"measurement": "Kb", "setting": "[1]; [3]", "result": 100, "unit": "nM"}, {"measurement": "Kb", "setting": "[2]", "result": "~316", "unit": "nM"}]}, {"smiles": "CC(C)C[C@H](NC(=O)[C@@H](Cc1ccccc1)NC(=O)[C@H](CO)NC(=O)[C@H](Cc1ccccc1)NC(=O)CNC(=O)[C@@H]1C[C@@H](O)CN1C(=O)[C@@H]1CCCN1C(=O)[C@H](CS)NC(=O)[C@H](N)CCCNC(=N)N)C(=O)N[C@@H](CCCNC(=N)N)C(=O)O", "note": "[CP-0141] (HELM PEPTIDE1{[dR].C.P.[Hyp].G.F.S.[dF].L.R}$$$$V2.0)", "values": [{"measurement": "Kb", "setting": "[2]", "result": "~1000", "unit": "nM"}]}, {"smiles": "CC(C)C[C@H](NC(=O)[C@@H](Cc1ccccc1)NC(=O)[C@H](CO)NC(=O)[C@H](Cc1ccccc1)NC(=O)CNC(=O)[C@@H]1C[C@@H](O)CN1C(=O)[C@H](CS)NC(=O)[C@H](CCCNC(=N)N)NC(=O)[C@H](N)CCCNC(=N)N)C(=O)N[C@@H](CCCNC(=N)N)C(=O)O", "note": "[CP-0142] (HELM PEPTIDE1{[dR].R.C.[Hyp].G.F.S.[dF].L.R}$$$$V2.0)", "values": [{"measurement": "% REC MONOMER", "setting": "[1]; Table C, rat uterus", "result": 80, "unit": "%"}, {"measurement": "Kb", "setting": "[1]; [3]", "result": 398, "unit": "nM"}, {"measurement": "Kb", "setting": "[2]", "result": "~2000", "unit": "nM"}]}, {"smiles": "CC(C)C[C@H](NC(=O)[C@@H](Cc1ccccc1)NC(=O)[C@H](CO)NC(=O)[C@H](Cc1ccccc1)NC(=O)CNC(=O)[C@H](CS)NC(=O)[C@@H]1CCCN1C(=O)[C@H](CCCNC(=N)N)NC(=O)[C@H](N)CCCNC(=N)N)C(=O)N[C@@H](CCCNC(=N)N)C(=O)O", "note": "[CP-0143] (HELM PEPTIDE1{[dR].R.P.C.G.F.S.[dF].L.R}$$$$V2.0)", "values": [{"measurement": "pA2 MONOMER", "setting": "[1]; Table C, rat uterus, P.A. = Partial Agonist", "result": "P.A."}, {"measurement": "Kb", "setting": "[2]", "result": "~316", "unit": "nM"}]}, {"smiles": "CC(C)C[C@H](NC(=O)[C@@H](Cc1ccccc1)NC(=O)[C@H](CO)NC(=O)[C@H](CS)NC(=O)CNC(=O)[C@@H]1C[C@@H](O)CN1C(=O)[C@@H]1CCCN1C(=O)[C@H](CCCNC(=N)N)NC(=O)[C@H](N)CCCNC(=N)N)C(=O)N[C@@H](CCCNC(=N)N)C(=O)O", "note": "[CP-0144] (HELM PEPTIDE1{[dR].R.P.[Hyp].G.C.S.[dF].L.R}$$$$V2.0)", "values": [{"measurement": "% REC MONOMER", "setting": "[1]; Table C, rat uterus", "result": 95, "unit": "%"}, {"measurement": "Kb", "setting": "[1]; [3]", "result": 63.1, "unit": "nM"}, {"measurement": "Kb", "setting": "[2]", "result": "~501", "unit": "nM"}]}, {"smiles": "CC(C)C[C@H](NC(=O)[C@@H](Cc1ccccc1)NC(=O)[C@H](CO)NC(=O)[C@H](Cc1ccccc1)NC(=O)CNC(=O)[C@@H]1C[C@@H](O)CN1C(=O)[C@@H]1CCCN1C(=O)[C@H](CCCNC(=N)N)NC(=O)[C@H](N)CS)C(=O)N[C@@H](CCCNC(=N)N)C(=O)O", "note": "[CP-0149] (HELM PEPTIDE1{[dC].R.P.[Hyp].G.F.S.[dF].L.R}$$$$V2.0)", "values": [{"measurement": "% REC MONOMER", "setting": "[1]; Table C, rat uterus", "result": 75, "unit": "%"}, {"measurement": "Kb", "setting": "[1]; [3]", "result": 79.4, "unit": "nM"}, {"measurement": "Kb", "setting": "[2]", "result": "~501", "unit": "nM"}]}, {"smiles": "CC(C)C[C@H](NC(=O)[C@@H](Cc1ccccc1)NC(=O)[C@H](CO)NC(=O)[C@H](Cc1ccccc1)NC(=O)CNC(=O)[C@@H]1C[C@@H](O)CN1C(=O)[C@@H]1CCCN1C(=O)[C@H](CCCNC(=N)N)NC(=O)[C@@H](N)CSC1CC(=O)N(CCCCCCN2C(=O)CC(SC[C@H](N)C(=O)N[C@@H](CCCNC(=N)N)C(=O)N3CCC[C@H]3C(=O)N3C[C@H](O)C[C@H]3C(=O)NCC(=O)N[C@@H](Cc3ccccc3)C(=O)N[C@@H](CO)C(=O)N[C@H](Cc3ccccc3)C(=O)N[C@@H](CC(C)C)C(=O)N[C@@H](CCCNC(=N)N)C(=O)O)C2=O)C1=O)C(=O)N[C@@H](CCCNC(=N)N)C(=O)O", "note": "(some centres unmarked) [CP-0152] (HELM PEPTIDE1{C.R.P.[Hyp].G.F.S.[dF].L.R}|PEPTIDE2{C.R.P.[Hyp].G.F.S.[dF].L.R}|CHEM1{[O=C1CC([*:1])C(=O)N1CCCCCCN1C(=O)CC([*:2])C1=O]}$PEPTIDE1,CHEM1,1:R3-1:R1|PEPTIDE2,CHEM1,1:R3-1:R2$$$V2.0)", "values": [{"measurement": "% REC DIMER", "setting": "[1]; Table C, rat uterus", "result": 50, "unit": "%"}, {"measurement": "Kb", "setting": "[1]; Table C, rat uterus, read-out: pA2 DIMER (converted)", "result": 12.6, "unit": "nM"}, {"measurement": "Kb", "setting": "[2]", "result": "~316", "unit": "nM"}]}, {"smiles": "CC(C)C[C@H](NC(=O)[C@@H](Cc1ccccc1)NC(=O)[C@H](CSC1CC(=O)N(CCCCCCCCCCN2C(=O)CC(SC[C@H](NC(=O)[C@H](Cc3ccccc3)NC(=O)CNC(=O)[C@@H]3C[C@@H](O)CN3C(=O)[C@@H]3CCCN3C(=O)[C@H](CCCNC(=N)N)NC(=O)[C@H](N)CCCNC(=N)N)C(=O)N[C@H](Cc3ccccc3)C(=O)N[C@@H](CC(C)C)C(=O)N[C@@H](CCCNC(=N)N)C(=O)O)C2=O)C1=O)NC(=O)[C@H](Cc1ccccc1)NC(=O)CNC(=O)[C@@H]1C[C@@H](O)CN1C(=O)[C@@H]1CCCN1C(=O)[C@H](CCCNC(=N)N)NC(=O)[C@H](N)CCCNC(=N)N)C(=O)N[C@@H](CCCNC(=N)N)C(=O)O", "note": "(some centres unmarked) [CP-0230] (HELM PEPTIDE1{[dR].R.P.[Hyp].G.F.C.[dF].L.R}|PEPTIDE2{[dR].R.P.[Hyp].G.F.C.[dF].L.R}|CHEM1{[O=C1CC([*:1])C(=O)N1CCCCCCCCCCN1C(=O)CC([*:2])C1=O]}$PEPTIDE1,CHEM1,7:R3-1:R1|PEPTIDE2,CHEM1,7:R3-1:R2$$$V2.0)", "values": [{"measurement": "% REC (40 MIN)", "setting": "[1]; Table D, 40 min", "result": 0, "unit": "%"}, {"measurement": "Kb", "setting": "[1]; Table D, effect of linker length, read-out: pA2 (UTERUS) (converted)", "result": 3.98, "unit": "nM"}]}, {"smiles": "CCCCCCNC(=O)CSC[C@H](NC(=O)[C@H](Cc1ccccc1)NC(=O)CNC(=O)[C@@H]1C[C@@H](O)CN1C(=O)[C@@H]1CCCN1C(=O)[C@H](CCCNC(=N)N)NC(=O)[C@H](N)CCCNC(=N)N)C(=O)N[C@H](Cc1ccccc1)C(=O)N[C@@H](CC(C)C)C(=O)N[C@@H](CCCNC(=N)N)C(=O)O", "note": "[CP-0266] (H-[dR]RP[Hyp]GFC(X19)[dF]LR-OH)", "values": [{"measurement": "Kb", "setting": "[1]; Table H, monomer modifications, read-out: RAT UTERUS pA2 (converted)", "result": 6.31, "unit": "nM"}, {"measurement": "% RECOVERY", "setting": "[1]; Table H, rat uterus", "result": 70, "unit": "%"}]}]}
